According to patent publication US12708655B2, “Botanicals as WNT/beta-catenin activators, molecular pathway regulators, tissue regenerators and health biomarker regulators” (Arbor Life Holdings, Ltd., priority 2020, dated 2026):
Values joined by “and” are separate entries in the source; they are usually repeats but may differ in a detail not shown here. Equal values may be shown once.

How the values were obtained:
[1] = system: androgenetic alopecia and telogen effluvium in Men; assay: Comparative analysis of clinical trial results in men versus standard of care, adjusted to 24 weeks; format: in vivo, human
[2] = system: androgentic alopecia and telogen effluvium in Women; assay: Comparative analysis of clinical trial results in women versus standard of care, adjusted to 24 weeks; format: in vivo, human
[3] = system: procaspase-8, caspase-3, procaspase-9, Bax, p53, Bcl-2, Bcl-XL; details: mouse model of hair loss; cited from earlier work
[4] = system: human dermal papilla stem cells (HDPSCs); assay: MTT assay of HDPSC growth/proliferation in culture; format: cell-based; details: for MTT signal (absorbance at 570 nm), mean relative to Control 1.00: n = 6; for Change vs Control (stem cells, MTT): Table 5e; for Change in Stem Cells (MTT signal, mean relative to Control 1.00): n = 29-30
Procedure: Passage 3 human dermal papilla stem cells (HDPSCs) from a person were purchased from Sigma-Aldrich (Burlington, ON, Canada) and all work was performed under Brock University Research Ethics Board approval (File 15-138). The cells were grown on collagen-coated plates in a 50:50 mixture of Dulbecco's modified Eagles medium (DMEM):Ham's F12 media (Sigma) supplemented with 10% fetal bovine serum (FBS), 1% Gluta-Max™, 0.1% penicillin/streptomycin, 20 ng/mL human fibroblast growth factor, and 10 ng/mL human epidermal growth factor (complete medium). Cell cultures were maintained in incubators set to 5% CO2, 37° C. and 100% humidity. Experiments were performed under conditions of unregulated O2 (18-19%), except where indicated. Cells initially underwent 5-7 passages and were then stored frozen in vials of one million cells each in the above medium supplemented with 10% dimethylsulfoxide (DMSO) and stored in liquid nitrogen. For each experiment, a single vial was thawed, grown overnight, and used to seed 96-well plates.
Botanical extracts and Biotin were screened for their ability to stimulate HDPSC growth in culture using a 96-well plate format with MTT assay as an endpoint. Cells were treated for 72 h with various concentrations and combinations (as indicated, range; 1×10^−1-1×10^−5) of extracts (Table 5a). All the ingredients were able to stimulate growth or cell proliferation above control to varying rates and by varied concentrations.
Cell proliferation was assessed by MTT [3-(4,5-dimethylthiazol-2-yl)-2,5-diphenyltetrazolium bromide] assay according to the manufacturer's recommendations. HDPSCs were seeded onto collagen-coated 96-well plates at~2000 cells/well and grown in complete medium overnight. The next day, indicated concentrations of botanical extracts were added to individual wells.
For all constituents, lyophilized extracts (botanicals) or oil (Biotin) were initially dissolved in PBS at the following concentrations: Biotin 0.25 mg/mL; grapeseesd 7.5 mg/mL; skullcap 1.7 mg/mL; eclipta 3.0 mg/mL. These solutions were sterilized by passing through a 0.45 μm syringe filter. The following dilutions of these solutions, referred to as “Stock Solutions”, were then used for experimental treatments in cell culture media: Biotin (1:100); grapeseed (1:1000); skullcap (1:1000); eclipta (1:100). DMEM media and extracts were refreshed each day. The following day, the MT assay was performed to evaluate cell growth. For this, all media/extract was removed from wells and replaced with phenol-red free DMEM. The cells were incubated for 2 h at 37° C. in a tissue culture incubator. Solubilization solution was then applied to lyse cells and the mixture was triturated repeatedly. The solubilized solutions from each well were then transferred to a fresh 96-well plate and absorbance read at 570 nm. Experiments were tested for 3 different concentration models and one was repeated three times at 5% oxygen and three times at 18% oxygen.
Botanical extracts of grapeseed, skullcap and eclipta and Biotin were screened for their ability to stimulate HDPSC growth in culture using a 96-well plate format with MT assay as an endpoint. Cells were treated for 72 h with various concentrations and combinations with further stock dilutions in the range; 10^−1-10^−5 of the extracts. […] (See Tables 5a, b, c, d, e, f, and g).

[5] = system: Wnt/beta-Catenin signaling; assay: TopFlash/FopFlash luciferase assay of Wnt/beta-Catenin signaling in transfected HDPSCs; format: cell-based, human
Procedure: The cells were then seeded onto a collagen coated 96-well plate (white opaque with clear bottom, Greiner Bio-one 655098) using 2500 cells per well on average with 200 μL supplemented D-MEM. […] In a 1.5 or 2 mL centrifuge tube, 60 μL FuGene® 6 was added to 500 μL DMEM (with no supplements or antibiotics) medium and mixed gently, then incubated for 5 min. 1) and 2) were combined and mixed gently, then incubated for 20 min at room temperature with occasional gentle mixing by hand. Old medium was removed from all wells and replaced with 100 μL fresh supplemented D-MEM. […] was then added to each well and mixed gently by pipette. Medium was changed after 4-6 h with 100 μL fresh supplemented DMEM. […] The treatments were performed three times once a day for a total of three days of treatment. Medium was removed from each well and wells were washed with 50 μL room temperature PBS so that no colour could be seen leftover. 20 μL lysis solution was added to each well and hand shaken every few minutes for a total of 15 mins. The fluorescence spectrophotometer (Varian Cary Eclipse model) was set to: • Data mode: Bio/Chemi-luminescence • Emission wavelength: 560.00 nm • Stop time: 0.8 mins • PMT Detector Voltage: […] 3 of the duplicates of the wells from 3) were used to count the cells in each well and estimate a count for each type of extract. Stimulation of stem cell growth and proliferation can be achieved by activation of the Wnt/beta-Catenin signaling pathway. Having confirmed proliferation of […] by exposure to grapeseed, skullcap, eclipta and Biotin and combinations thereof, a series of studies were conducted to detect and measure the upregulation of the Wnt/beta-Catenin protein as the activation mechanism of the HDPSC proliferation. The method selected for the Wnt/beta-Catenin protein studies was transfection with Topflash and Fopflash plasmids followed by measuring luciferase activity by bioluminescence assays. Topflash and Fopflash plasmids were obtained as bacterial stab cultures from Add gene. Plasmid DNA was purified using the Norgen Biotek kit (info). […] Old medium was removed and replaced with 100 μL fresh complete medium. 20 μL of DNA/FuGENETM 6 mixture was added and mixed gently by pipette. After 4-6 h, medium was removed and replaced with 100 μL fresh complete medium. Botanical extracts were then added to each well. Treatments lasted 72 h with media/extracts refreshed every 24 h. Activation of Wnt/beta-Catenin signaling was assayed as luciferase activity using standard bioluminescence assays. Media from each well was removed and cells were washed twice with 50 μL PBS. 20 μL of cell lysis solution was then added to each well and the plate was incubated at room temperature for 15 min. Luminescence at 560±10 nm was measured using a Varian Cary Eclipse fluorescence spectrophotometer. […] Following transfection, cells were treated for three days as for the MTT assay and then assayed for luciferase activity using standard assays. […] To evaluate whether the extract combinations with Biotin identified in FIG. 1 activate Wnt/beta-Catenin signaling, […] were transfected with Topflash plasmid, which contains the luciferase cDNA and several tandem repeats of the Wnt/beta-Catenin response element.^230 Following transfection, cells were treated for three days as for the MTT assay and then assayed for luciferase activity using standard assays.

male pattern baldness = details: human, in vivo; cited from earlier work

With `Nc1cc(N2CCCCC2)nc(N)[n+]1[O-]` [2% minoxidil, minoxidil] the “Efficacy Factor Multiple vs 2% Minoxidil” value [1] was 1.0 and the “Efficacy Factor Multiple vs 2% Minoxidil” value [2] was 1.0.

With `Nc1cc(N2CCCCC2)nc(N)[n+]1[O-]` [5% minoxidil, minoxidil] the “Efficacy Factor Multiple vs 2% Minoxidil” value [1] was 1.9 and the “Efficacy Factor Multiple vs 2% Minoxidil” value [2] was 1.0.

In the case of `CC(C)(O)[C@@H]1CC[C@](C)([C@H]2[C@@H](O)C[C@@]3(C)[C@@H]4C[C@H](O[C@@H]5O[C@H](CO)[C@@H](O)[C@H](O)[C@H]5O)[C@H]5C(C)(C)[C@@H](O[C@@H]6OC[C@@H](O)[C@H](O)[C@H]6O)CC[C@@]56C[C@@]46CC[C@]23C)O1` [Astragaloside IV], the “effect on Bax, p53, Bcl-2 and Bcl-XL” value [3] is listed as “down-regulation of Bax and p53 (pro-apoptotic molecules), and up-regulation of the anti-apoptotic Bcl-2 and Bcl-XL molecules” and the “effect on procaspase-8, caspase-3 and procaspase-9” value [3] is listed as “blocked the procaspase-8, resulting in the inhibition of the pro-apoptosis enzymes caspase-3 and procaspase-9 activities”.

With `O=C(O)CCCC[C@@H]1SC[C@@H]2NC(=O)N[C@@H]21` [Biotin] the “HDPSC growth in the MTT assay, result in words” value ([4]; 72 h, stock dilutions 10^−1-10^−5) was “statistically significant reduction in the cell population”, the “MTT signal (absorbance at 570 nm), mean relative to Control 1.00” value ([4]; Table 5b, dilution 1/10^3, 5% oxygen, 72 h) was 1.12 and the “MTT signal (absorbance at 570 nm), mean relative to Control 1.00” value ([4]; Table 5b, dilution 1/10^4, 5% oxygen, 72 h) was 0.95. The “MTT signal (absorbance at 570 nm), mean relative to Control 1.00” value ([4]; Table 5b, dilution 1/10^5, 5% oxygen, 72 h) was 0.69, the “MTT signal (absorbance at 570 nm), mean relative to Control 1.00” value ([4]; Table 5c, dilution 1/10^3, 5% oxygen, 72 h) was 0.76 and the “MTT signal (absorbance at 570 nm), mean relative to Control 1.00” value ([4]; Table 5c, dilution 1/10^4, 5% oxygen, 72 h) was 0.70. The “MTT signal (absorbance at 570 nm), mean relative to Control 1.00” value ([4]; Table 5c, dilution 1/10^5, 5% oxygen, 72 h) was 0.95, the “Change vs Control (stem cells, MTT)” value ([4]; dilution 1/10^3, 5% oxygen) was 52.0% and the “Change vs Control (stem cells, MTT)” value ([4]; dilution 1/10^5, 5% oxygen) was −21.0%. The “Change in Stem Cells (MTT signal, mean relative to Control 1.00)” value ([4]; Table 5d, dilution of stock 1/10^4, 5% oxygen, 72 h) was 1.09, the “Change in Stem Cells (MTT signal, mean relative to Control 1.00)” value ([4]; Tables 5f/5g, dilution of stock 1/10^3, 18% oxygen, 72 h) was 0.99 and the “Change in Stem Cells (MTT signal, mean relative to Control 1.00)” value ([4]; Tables 5f/5g, dilution of stock 1/10^4, 18% oxygen, 72 h) was 1.21. The “Change in Stem Cells (MTT signal, mean relative to Control 1.00)” value ([4]; Tables 5f/5g, dilution of stock 1/10^5, 18% oxygen, 72 h) was 0.98, the “Change in Stem Cells (MTT signal, mean relative to Control 1.00)” value ([4]; Tables 5d/5e, dilution of stock 1/10^3, 5% oxygen, 72 h) was 1.52 and the “Change in Stem Cells (MTT signal, mean relative to Control 1.00)” value ([4]; Tables 5d/5e, dilution of stock 1/10^5, 5% oxygen, 72 h) was 0.79. The “HDPSC population reduced by” value ([4]; stock dilution 10^−5) was 21%, the “HDPSC Proliferation (MTT, means % relative to Control = 100%)” value ([4]; stock dilution 10^−5, 5% oxygen, 72 h) was 79% and the “relative effect on Wnt/beta-Catenin Signaling (Control=100)” value ([5]; No Biotin, 18% oxygen, 72 h) was 97. For the same compound, the “luciferase activity in TopFlash transfected HDPSCs, individual replicate measurements (single treatments)” value ([5]; Table 9b, replicates 1-28, 18% oxygen, 72 h) was 21.57 arbitrary luminescence values and 17.5 arbitrary luminescence values and 14.29 arbitrary luminescence values and 19.58 arbitrary luminescence values (2×) and 23.45 arbitrary luminescence values and 26.25 arbitrary luminescence values and 19.99 arbitrary luminescence values and 20.75 arbitrary luminescence values (2×) and 12.46 arbitrary luminescence values and 7.884 arbitrary luminescence values and 11.65 arbitrary luminescence values and 12.51 arbitrary luminescence values (2×) and 16.28 arbitrary luminescence values and 20.14 arbitrary luminescence values and 20.65 arbitrary luminescence values and 10.28 arbitrary luminescence values and 7.63 arbitrary luminescence values and 10.94 arbitrary luminescence values and 15.57 arbitrary luminescence values and 18.62 arbitrary luminescence values and 20.5 arbitrary luminescence values and 14.24 arbitrary luminescence values and 15.72 arbitrary luminescence values and 22.03 arbitrary luminescence values and 23.3 arbitrary luminescence values, the “luciferase activity in TopFlash transfected HDPSCs, individual replicate measurements (combination experiment with Biotin)” value ([5]; Table 9d, replicates 1-21, 18% oxygen, 72 h) was 79.5782 arbitrary luminescence values and 105.8972 arbitrary luminescence values and 78.0728 arbitrary luminescence values and 83.6682 arbitrary luminescence values and 87.4832 arbitrary luminescence values and 90.9168 arbitrary luminescence values and 94.2910 arbitrary luminescence values and 100.5561 arbitrary luminescence values and 22.6868 arbitrary luminescence values and 41.6603 arbitrary luminescence values and 37.0416 arbitrary luminescence values and 33.2163 arbitrary luminescence values and 44.2139 arbitrary luminescence values and 48.4257 arbitrary luminescence values and 95.4836 arbitrary luminescence values and 110.3368 arbitrary luminescence values and 109.6925 arbitrary luminescence values and 129.5662 arbitrary luminescence values and 112.3295 arbitrary luminescence values and the “luciferase activity in TopFlash transfected HDPSCs, mean (single treatments)” value ([5]; Tables 9a/9b, 18% oxygen, 72 h, 560 ± 10 nm, 27-28 replicates) was 17.0 ± 0.9 arbitrary luminescence values and 17.02 arbitrary luminescence values. The “luciferase activity in TopFlash transfected HDPSCs, mean (combination experiment with Biotin)” value ([5]; Tables 9c/9d, 18% oxygen, 72 h, 18-20 replicates) was 79.2 ± 7.3 arbitrary luminescence values and 79.2167 arbitrary luminescence values, the “relative effect on Wnt/beta-Catenin Signaling (Control=100)” value ([5]; With Biotin, 18% oxygen, 72 h) was 99 and the “% Change vs Control / Wnt/β-catenin Signal Upregulation of Combinations vs Control” value ([5]; combination with Biotin (or Biotin alone), dilution 10^−3, 18% oxygen) was −1.0%. The “effect of Biotin on Wnt/beta-Catenin signaling upregulated by botanical extracts” value ([5]; tested in combination with botanical extracts) was “attenuating or inhibiting effect”.

In the case of procyanidin, the adverse side effects (male pattern baldness) is listed as “without any adverse side effects”.
